In article PMC12801355, “Peptide Amphiphiles Hitchhike on Endogenous Biomolecules for Enhanced Cancer Imaging and Therapy” (Advanced Materials (Deerfield Beach, Fla.), 2025):
Where a SMILES comes first, the peptide text is derived from it. The star is where a group is joined. Palmitoyl = CCCCCCCCCCCCCCCC(=O)*

Experiments:
[1] = system: small intestinal adenomas and colon polyps; experiment: Detection of intestinal lesions in APC^min mice; format: in vivo, mouse
Procedure: (§1) For tumor accumulation studies in subcutaneous (HCT‐116, A375, TRAMP‐C2, MC38, LLC1, RG2, PDX cell lines, wild type or SR‐B1 ‐/‐ TRAMP‐C2, and wild type or LDL‐R ‐/‐ HeLa), intradermal (A375), or fat pad (4T1 and MCF‐7) tumors, cells were implanted as described above. When the tumors reached a size around ≈0.3–1 cm, mice were injected intravenously with 100 µL of ICG conjugated PAs (in PBS, 0.5 mM) or free ICG (in PBS, 0.5 mM). After probe injections, mice were imaged using the IVIS Spectrum (PerkinElmer) with excitation and emission wavelengths of 745 and 820 nm, respectively, at the specified time points. Living Image (PerkinElmer) software was used for all analyses. For MMTV mice experiments, mice were injected intravenously weekly with SA‐E (100 µL PBS, 0.5 mM) between 71 and 85 days of age and imaged 2 days later in the IVIS. […] SA‐E was injected intravenously (100 µL PBS, 0.5 mM), 2 days later the intestinal tissue was harvested, washed, and analyzed in the IVIS for ICG.

4T1 tumor = experiment: Tumor accumulation, live IVIS imaging; format: in vivo, mouse
Procedure: as §1

[2] = system: TRAMP‐C2 mouse prostate cancer cells; experiment: Uptake of SA‐E by wild type or SR‐B1 knockout cells; format: cell-based; conditions: Cy5 SA‐E 20 µM, 10% FBS DMEM
Procedure: For SR‐B1 studies, an equal number of wells in a black walled, glass bottom 96‐well plate were seeded with either wild type or SR‐B1‐/‐ TRAMP‐C2 cells and grown to near confluency, as above. The Cy5 conjugated SA‐E was diluted in 10% FBS containing DMEM and incubated at room temperature for 30 min. All media from the wells was aspirated. Four wells of each cell type received 100 µL aliquots with SA‐E (20 µM). The plate was incubated for 30 min, as above. Following the methods above, wells were washed with PBS, media was added, and the plate was returned to the incubator for 1 h. Finally, Hoechst staining and fluorescence imaging were performed using a Leica Thunder DMi8 fluorescent microscope, as described above.

[3] = Stability of PA nanostructures in plasma (fluorescence recovery); format: in vitro ADME, human
Procedure: ICG or Cy5 conjugated PAs were dissolved in PBS (10 mM, pH 7.4) at a concentration of 1 or 100 µM, and 90 µL aliquots of these solutions were added to a 96 well plate (4 wells for each PA). Then, 10 µL of pooled human plasma was added to each well, and fluorescence spectra of ICG or Cy5 were recorded using a microplate reader (TECAN Spark 20 M) at different time points.

4T1 cells = experiment: Uptake of SA‐E in the presence of inhibitors; format: cell-based, mouse; conditions: inhibitor 10 µM, 20 min pre‐incubation, Cy5 SA‐E 20 µM, FBS free media
Procedure: To explore the effect of serum proteins and different inhibitors on the cellular uptake of SA‐E, 4T1 cells were grown to near confluency in 96 well plates, as described above. For cellular uptake mechanism studies, the growth media (RPMI containing 10% FBS) was exchanged for 100 µL of FBS free media, then returned to the incubator. Inhibitors (brefeldin A, bromsulphalein, chlorpromazine hydrochloride, cis‐ACBD, filipin, heparin, methyl‐β‐cyclodextrin, or wortmannin) were made in FBS free media at a concentration of 1 mM. Then, 1 µL of media containing inhibitors was added to wells, so that the final drug concentration in each well was 10 µM. The plate was returned to the incubator for 20 min. After incubation, Cy5 conjugated SA‐E was added to all wells such that the final concentration was 20 µM per well. The plate was returned to the incubator for 30 min. Wells were aspirated and washed with PBS as above. 100 µL of FBS free media was added, and the plate was returned to the incubator for 1 h. Finally, Hoechst staining and fluorescence imaging were performed using a Leica Thunder DMi8 fluorescent microscope, as described above.

[4] = PA fluorescence in liver homogenates; format: in vitro ADME; conditions: ICG conjugated, 0.1 to 10 µM spiked into mouse liver homogenate, IVIS
Procedure: Liver samples (6.2 g total weight) collected from healthy BALB/cJ mice were placed in a gentleMACS M Tube containing 2 mL of PBS. The M Tube was fitted with a 600 µm mesh strainer, and homogenization was performed using a gentleMACS Dissociator by running a one‐minute program at 1260 rotations per round (rpr) for five cycles. ICG conjugated SA‐E and SA‐K were then spiked into the liver homogenates in a 96‐well plate at final concentrations of 0, 0.1, 0.5, 2.0, 5.0, and 10 µM. Fluorescence signals from the homogenates were measured using an IVIS (PerkinElmer).

[5] = ICG fluorescence in fractions of collected blood (plasma, WBC, RBC); format: in vivo; conditions: mouse blood 1 h after 50 nmol IV; average
Procedure: For these experiments, 100 µL of ICG conjugated SA‐E (0.5 mM) was intravenously injected into wild type (C57Bl/6J), ApoA1 ‐/‐, or LDL‐R ‐/‐ mice. One hour after injection blood was collected via cardiac puncture (500 µL) in EDTA containing tubes (BD MicroTainer Blood Collection Tube, 365974). To separate plasma, blood samples were centrifuged for 10 min at 1500 g, and supernatants were removed. Samples were centrifuged again for 10 min at 2500 g, and supernatants were stored at −20 °C for up to 5 days before use. For RBCs, 10 µL of the centrifugation pellet was separated and stored at −20 °C for up to 5 days before analysis. For WBCs, 100 µL of the remaining pellet was collected and combined with 2 mL Red Blood Cell Lysis Buffer (BioLegend, 420514). This mixture was allowed to incubate at room temperature for 15 min with occasional mixing. The solution was then centrifuged at 500 g for 5 min, the supernatant was removed, and the pellet was redissolved in 30 µL PBS, then stored at −20 °C for up to 5 days. […] For fluorescence measurements, 5 µL of samples were added to a 96 well plate, diluted to a total volume of 100 µL with PBS, and fluorescence was measured using a microplate reader (Tecan Spark 20 M).

[6] = system: xenograft, syngeneic, transgenic and PDX tumor models; experiment: Tumor accumulation in a broad range of tumor models; format: in vivo, mouse; conditions: 2 days after 50 nmol IV
Procedure: as §1

[7] = system: HeLa human cervical cancer cells; experiment: Uptake of SA‐E by wild type or LDL‐R knockout cells; format: cell-based; conditions: Cy5 SA‐E 20 µM, 10% FBS DMEM
Procedure: For LDL‐R studies, 2 × 10^5 wild type or LDL‐R‐/‐ HeLa human cervical cancer cells were grown to near confluency in 96 well plates with black walls and flat glass bottom. Cy5 conjugated SA‐E (20 µM) was preincubated in DMEM containing 10% FBS for 30 min at 37 °C. Wells were aspirated, and 100 µL of the SA‐E containing DMEM was added. The plate was incubated for 30 min, as above. The wells were washed with sterile PBS, as above, media was added, and the plate was returned to the incubator for 1 h. Wells were aspirated, and nuclei were stained with Hoechst as above. Wells were aspirated, and 100 µL of phenol red free DMEM with 10% FBS was added to each well. Cells were then imaged for Cy5 conjugated SA‐E with a Zeiss Apotome 3 microscope at 20x and 63x objectives using Zen software.

[8] = 4T1 tumor‐bearing mice, 50 nmol IV

## CCCCCCCCCCCCCCCC(=O)NCC(=O)NCC(=O)NCC(=O)N[C@@H](Cc1c[nH]cn1)C(=O)N[C@@H](C)C(=O)N[C@@H](C)C(=O)N[C@@H](CC(N)=O)C(=O)NCC(=O)N[C@@H](CCC(=O)O)C(=O)N[C@@H](CCC(=O)O)C(=O)N[C@@H](CS)C(=O)N[C@@H](CCC(=O)O)C(=O)O [SA‐E] (Palmitoyl-GGGHAANGEECE-OH)
[1]; 3 APC^min mice
  colon polyps detected: 4/4
  small intestinal adenomas detected: 71/71
[1]; mouse 1, of 2 lesions
  Colon, SA-E Negative lesions: 0
  Colon, SA-E Positive lesions: 2
[1]; mouse 1, of 15 lesions
  Small Intestine, SA-E Negative lesions: 0
  Small Intestine, SA-E Positive lesions: 15
[1]; mouse 2, of 1 lesion
  Colon, SA-E Negative lesions: 0
  Colon, SA-E Positive lesions: 1
[1]; mouse 2, of 22 lesions
  Small Intestine, SA-E Negative lesions: 0
  Small Intestine, SA-E Positive lesions: 22
[1]; mouse 3, of 1 lesion
  Colon, SA-E Negative lesions: 0
  Colon, SA-E Positive lesions: 1
[1]; mouse 3, of 34 lesions
  Small Intestine, SA-E Negative lesions: 0
  Small Intestine, SA-E Positive lesions: 34
4T1 tumor; [8]
  day of 50% decrease in the tumor signal: 3 days
  retention of tumor signal: still detectable levels even 2 weeks after injection
  time at which background signal was mostly cleared: 2 days
  total tumor accumulation relative to No‐SA: ≈ 1.6 fold
4T1 tumor; 4T1 tumor‐bearing mice, ICG conjugated, 50 nmol IV
  time of maximum tumor fluorescence: 11 h
4T1 tumor; biodistribution studies, summary in introduction
  retention in the tumor: more than 2 weeks
4T1 tumor; days 2 to 8, 50 nmol IV
  maximum TBR: 5–6
[2]
  uptake in SR‐B1‐/‐ cells compared to wild type: did not observe any significant change
[3]; Cy5 conjugated PAs 100 µM, 10% human plasma, 1 h
  increase in Cy5 fluorescence in plasma relative to SA‐K: ≈ 10 fold
[3]; ICG conjugated PAs 1 or 100 µM in PBS pH 7.4 with 10% pooled human plasma, over 2 h, plate reader, larger and more rapid than SA‐K
  increase in ICG fluorescence in plasma relative to SA‐K (micelle disassembly): approximately three‐fold
4T1 cells
  cellular uptake with Filipin: decreased SA‐E uptake to a lesser extent
  cellular uptake with Methyl‐β‐cyclodextrin: Significant decreases
  cellular uptake with Wortmannin: Significant decreases
  cellular uptake with bromosulfalein (BSP): no change
  cellular uptake with cis‐ACBD: no change
[4]
  fluorescence in liver homogenates, SA‐E versus SA‐K (disassembly): almost identical fluorescence intensity
[5]
  share of fluorescence in blood plasma: 98.9%
[6]
  tumor accumulation across models: highly specific tumor accumulation in all 13 tumor models
[7]
  uptake in LDL‐R‐/‐ cells compared to wild type: did not observe any significant change
